The record followed here is ChEMBL document CHEMBL4507263, “Data for DCP probe BAY-474” (2021).

Assay [1] deals with Ribosomal protein S6 kinase beta-1 (Homo sapiens) (UniProt P23443). The experiment in a line: p70S6K (h) Millipore kinase activity assay. The settings on record: Compound concentration 1.0 uM.
For assay [2], the target named is Ribosomal protein S6 kinase alpha-3 (Homo sapiens, UniProt P51812). Kind of assay: Rsk2 (h) Millipore kinase activity assay.
The target in assay [3] is Sodium-dependent noradrenaline transporter (Homo sapiens) (UniProt P23975). The settings on record: Compound concentration 10.0 uM.
The target in assay [4] is Cytoplasmic tyrosine-protein kinase BMX (Homo sapiens) (UniProt P51813). Kind of assay: Bmx (h) Millipore kinase activity assay. The settings on record: Compound concentration 1.0 uM.
Assay [5] addresses Neuropeptide Y receptor type 2 (Homo sapiens) (UniProt P49146). Kind of assay: Inhibition of Neuropeptide Y Y2 at 10 µM in the Eurofins-Panlabs radioligand binding assay (Eurofins_assay_257110). The settings on record: Compound concentration 10.0 uM.
The target of assay [6] is Serine/threonine-protein kinase PLK2 (Homo sapiens) (UniProt Q9NYY3). Kind of assay: Snk (h) Millipore kinase activity assay. The settings on record: Compound concentration 1.0 uM.
Assay [7] has as its target Protein kinase C iota type (Homo sapiens) (UniProt P41743). Kind of assay: PKCiota (h) Millipore kinase activity assay. To be noted: Compound concentration 1.0 uM.
The target of assay [8] is Serine/threonine-protein kinase STK11 (Homo sapiens) (UniProt Q15831). Kind of assay: LKB1 (h) Millipore kinase activity assay. The settings on record: Compound concentration 1.0 uM.
In assay [9] the target is Alpha-1A adrenergic receptor (Homo sapiens) (UniProt P35348). The settings on record: Rattus norvegicus; Compound concentration 10.0 uM.
In assay [10] the target is PAS domain-containing serine/threonine-protein kinase (Homo sapiens) (UniProt Q96RG2). The experiment in a line: PASK (h) Millipore kinase activity assay. The settings on record: Compound concentration 1.0 uM.
In assay [11] the target is G protein-coupled receptor kinase 5 (Homo sapiens) (UniProt P34947). The experiment in a line: GRK5 (h) Millipore kinase activity assay. The settings on record: Compound concentration 1.0 uM.
Assay [12] deals with Mitogen-activated protein kinase kinase kinase 5 (Homo sapiens) (UniProt Q99683). The experiment in a line: ASK1 (h) Millipore kinase activity assay. To be noted: Compound concentration 1.0 uM.
For another assay, the species on record is Mus musculus. The experiment in a line: Inhibition of Interleukin IL-1 at 10 µM in the Eurofins-Panlabs radioligand binding assay (Eurofins_assay_243520). The settings on record: Compound concentration 10.0 uM. Also noted: ligand concentration 0.1 nM.
Assay [13] addresses Tyrosine-protein kinase ABL1 (Homo sapiens) (UniProt P00519). Kind of assay: Abl (h) Millipore kinase activity assay. To be noted: Compound concentration 1.0 uM.
Assay [14] concerns the target Tyrosine-protein kinase HCK (Homo sapiens) (UniProt P08631). Kind of assay: Hck (h) Millipore kinase activity assay. To be noted: Compound concentration 1.0 uM.
For assay [15], the target named is Angiopoietin-1 receptor (Homo sapiens) (UniProt Q02763). The experiment in a line: Tie2 (h) Millipore kinase activity assay. To be noted: Compound concentration 1.0 uM.
The target in assay [16] is Proto-oncogene tyrosine-protein kinase ROS (Homo sapiens) (UniProt P08922). The settings on record: Compound concentration 1000.0 nM.
The target in assay [17] is NUAK family SNF1-like kinase 1 (Homo sapiens) (UniProt O60285). To be noted: Compound concentration 1000.0 nM.
Assay [18] has as its system Tyrosine-protein kinase ABL1 (Homo sapiens), P00519 [H396P]. The settings on record: Compound concentration 1000.0 nM.
For assay [19], the target named is STE20/SPS1-related proline-alanine-rich protein kinase (Homo sapiens) (UniProt Q9UEW8). The settings on record: Compound concentration 1000.0 nM.
In assay [20] the target is Serine/threonine-protein kinase Sgk2 (Homo sapiens) (UniProt Q9HBY8). To be noted: Compound concentration 1000.0 nM.
Assay [21] has as its target Mitogen-activated protein kinase kinase kinase 19 (Homo sapiens) (UniProt Q56UN5). To be noted: Compound concentration 1000.0 nM.
The subject of assay [22] is Proto-oncogene tyrosine-protein kinase receptor Ret (Homo sapiens), P07949 [V804M]. The settings on record: Compound concentration 1000.0 nM.
The target of assay [23] is Ribosomal protein S6 kinase alpha-2 (Homo sapiens) (UniProt Q15349). To be noted: Compound concentration 1000.0 nM.
Assay [24] addresses Cyclin-dependent kinase 7 (Homo sapiens) (UniProt P50613). The settings on record: Compound concentration 1000.0 nM.
Assay [25] has as its target MAP/microtubule affinity-regulating kinase 3 (Homo sapiens) (UniProt P27448). The settings on record: Compound concentration 1000.0 nM.
The target of assay [26] is Dual specificity mitogen-activated protein kinase kinase 4 (Homo sapiens) (UniProt P45985). To be noted: Compound concentration 1000.0 nM.
The target in assay [27] is Fibroblast growth factor receptor 1 (Homo sapiens) (UniProt P11362). To be noted: Compound concentration 1000.0 nM.
In assay [28] the target is Tyrosine-protein kinase receptor Tie-1 (Homo sapiens) (UniProt P35590). The settings on record: Compound concentration 1000.0 nM.
Assay [29] addresses Phosphorylase b kinase gamma catalytic chain, skeletal muscle/heart isoform (Homo sapiens) (UniProt Q16816). To be noted: Compound concentration 1000.0 nM.
Assay [30] concerns the target MAP kinase-activated protein kinase 2 (Homo sapiens) (UniProt P49137). To be noted: Compound concentration 1000.0 nM.
In assay [31] the target is Focal adhesion kinase 1 (Homo sapiens) (UniProt Q05397). The settings on record: Compound concentration 1000.0 nM.
Assay [32] deals with Mitogen-activated protein kinase 7 (Homo sapiens) (UniProt Q13164). The settings on record: Compound concentration 1000.0 nM.
For assay [33], the system named is Phosphatidylinositol 4,5-bisphosphate 3-kinase catalytic subunit alpha isoform (Homo sapiens), P42336 [C420R]. The settings on record: Compound concentration 1000.0 nM.
Assay [34] deals with Tyrosine-protein kinase receptor UFO (Homo sapiens) (UniProt P30530). The settings on record: Compound concentration 1000.0 nM.
Assay [35] deals with BDNF/NT-3 growth factors receptor (Homo sapiens) (UniProt Q16620). The settings on record: Compound concentration 1000.0 nM.
For assay [36], the target named is Cyclin-dependent kinase 4 (Homo sapiens) (UniProt P11802). To be noted: Compound concentration 1000.0 nM.
Assay [37] addresses Tyrosine-protein kinase Srms (Homo sapiens) (UniProt Q9H3Y6). To be noted: Compound concentration 1000.0 nM.
Assay [38] deals with Cytoplasmic tyrosine-protein kinase BMX (Homo sapiens) (UniProt P51813). To be noted: Compound concentration 1000.0 nM.
The target of assay [39] is Receptor-interacting serine/threonine-protein kinase 1 (Homo sapiens) (UniProt Q13546). The settings on record: Compound concentration 1000.0 nM.
Assay [40] relates to Mast/stem cell growth factor receptor Kit (Homo sapiens), P10721 [V559D,V654A]. The settings on record: Compound concentration 1000.0 nM.
The target in assay [41] is Homeodomain-interacting protein kinase 3 (Homo sapiens) (UniProt Q9H422). To be noted: Compound concentration 1000.0 nM.
Assay [42] has as its target Inhibitor of nuclear factor kappa-B kinase subunit alpha (Homo sapiens) (UniProt O15111). The settings on record: Compound concentration 1000.0 nM.
Assay [43] concerns the target Serine/threonine-protein kinase SIK2 (Homo sapiens) (UniProt Q9H0K1). To be noted: Compound concentration 1000.0 nM.

The term inhibition denotes the drop in the measured response relative to a control, in per cent. The term IC50 denotes the concentration at which inhibition is half-maximal. A low value points to greater potency in that assay.

Ribosomal protein S6 kinase alpha-3, sequence (P51812 whole entry): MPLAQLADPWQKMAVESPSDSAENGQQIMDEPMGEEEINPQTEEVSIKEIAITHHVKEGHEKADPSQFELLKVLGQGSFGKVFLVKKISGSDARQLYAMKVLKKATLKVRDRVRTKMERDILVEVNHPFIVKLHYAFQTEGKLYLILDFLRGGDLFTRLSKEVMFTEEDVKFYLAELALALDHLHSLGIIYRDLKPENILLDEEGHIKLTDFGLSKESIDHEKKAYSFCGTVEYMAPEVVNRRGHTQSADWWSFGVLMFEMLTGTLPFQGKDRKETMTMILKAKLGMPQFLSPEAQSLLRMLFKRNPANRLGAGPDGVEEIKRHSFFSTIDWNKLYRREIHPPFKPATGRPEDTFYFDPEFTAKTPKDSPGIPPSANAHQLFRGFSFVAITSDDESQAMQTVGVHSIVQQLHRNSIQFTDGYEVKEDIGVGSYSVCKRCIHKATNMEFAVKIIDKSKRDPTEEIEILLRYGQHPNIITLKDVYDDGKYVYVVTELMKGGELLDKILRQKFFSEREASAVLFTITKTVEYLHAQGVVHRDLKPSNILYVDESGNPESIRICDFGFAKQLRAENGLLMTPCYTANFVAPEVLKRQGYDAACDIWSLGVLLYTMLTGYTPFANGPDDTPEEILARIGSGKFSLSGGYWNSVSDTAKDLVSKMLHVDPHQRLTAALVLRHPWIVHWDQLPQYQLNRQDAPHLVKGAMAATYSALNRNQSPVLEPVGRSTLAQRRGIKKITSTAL
Neuropeptide Y receptor type 2 (Homo sapiens), sequence (P49146 whole entry): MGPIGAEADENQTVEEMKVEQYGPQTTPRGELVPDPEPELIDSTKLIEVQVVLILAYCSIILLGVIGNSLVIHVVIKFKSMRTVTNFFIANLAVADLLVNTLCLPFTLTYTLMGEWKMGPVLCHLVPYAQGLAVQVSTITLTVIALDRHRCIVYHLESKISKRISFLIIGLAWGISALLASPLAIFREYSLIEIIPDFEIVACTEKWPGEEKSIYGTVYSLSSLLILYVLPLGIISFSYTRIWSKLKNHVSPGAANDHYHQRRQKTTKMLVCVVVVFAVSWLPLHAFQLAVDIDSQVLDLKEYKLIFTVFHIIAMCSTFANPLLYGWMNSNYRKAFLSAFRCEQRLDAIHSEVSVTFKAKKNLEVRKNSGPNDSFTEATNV
Tyrosine-protein kinase Srms (Homo sapiens), sequence (Q9H3Y6 whole entry): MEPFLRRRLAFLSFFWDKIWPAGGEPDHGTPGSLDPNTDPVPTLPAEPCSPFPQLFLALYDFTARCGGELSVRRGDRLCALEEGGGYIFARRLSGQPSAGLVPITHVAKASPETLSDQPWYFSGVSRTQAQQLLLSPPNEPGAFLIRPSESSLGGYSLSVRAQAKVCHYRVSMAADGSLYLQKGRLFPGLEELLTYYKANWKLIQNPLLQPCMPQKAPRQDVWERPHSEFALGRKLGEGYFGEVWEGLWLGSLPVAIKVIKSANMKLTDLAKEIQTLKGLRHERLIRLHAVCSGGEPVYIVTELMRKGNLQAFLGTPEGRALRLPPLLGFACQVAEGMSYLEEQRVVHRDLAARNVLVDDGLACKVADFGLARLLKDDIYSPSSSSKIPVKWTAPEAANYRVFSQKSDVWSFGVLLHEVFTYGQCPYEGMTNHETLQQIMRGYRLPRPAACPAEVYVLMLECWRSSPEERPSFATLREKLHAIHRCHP
Proto-oncogene tyrosine-protein kinase receptor Ret (Homo sapiens), P07949 [V804M], sequence (P07949 whole entry V804M): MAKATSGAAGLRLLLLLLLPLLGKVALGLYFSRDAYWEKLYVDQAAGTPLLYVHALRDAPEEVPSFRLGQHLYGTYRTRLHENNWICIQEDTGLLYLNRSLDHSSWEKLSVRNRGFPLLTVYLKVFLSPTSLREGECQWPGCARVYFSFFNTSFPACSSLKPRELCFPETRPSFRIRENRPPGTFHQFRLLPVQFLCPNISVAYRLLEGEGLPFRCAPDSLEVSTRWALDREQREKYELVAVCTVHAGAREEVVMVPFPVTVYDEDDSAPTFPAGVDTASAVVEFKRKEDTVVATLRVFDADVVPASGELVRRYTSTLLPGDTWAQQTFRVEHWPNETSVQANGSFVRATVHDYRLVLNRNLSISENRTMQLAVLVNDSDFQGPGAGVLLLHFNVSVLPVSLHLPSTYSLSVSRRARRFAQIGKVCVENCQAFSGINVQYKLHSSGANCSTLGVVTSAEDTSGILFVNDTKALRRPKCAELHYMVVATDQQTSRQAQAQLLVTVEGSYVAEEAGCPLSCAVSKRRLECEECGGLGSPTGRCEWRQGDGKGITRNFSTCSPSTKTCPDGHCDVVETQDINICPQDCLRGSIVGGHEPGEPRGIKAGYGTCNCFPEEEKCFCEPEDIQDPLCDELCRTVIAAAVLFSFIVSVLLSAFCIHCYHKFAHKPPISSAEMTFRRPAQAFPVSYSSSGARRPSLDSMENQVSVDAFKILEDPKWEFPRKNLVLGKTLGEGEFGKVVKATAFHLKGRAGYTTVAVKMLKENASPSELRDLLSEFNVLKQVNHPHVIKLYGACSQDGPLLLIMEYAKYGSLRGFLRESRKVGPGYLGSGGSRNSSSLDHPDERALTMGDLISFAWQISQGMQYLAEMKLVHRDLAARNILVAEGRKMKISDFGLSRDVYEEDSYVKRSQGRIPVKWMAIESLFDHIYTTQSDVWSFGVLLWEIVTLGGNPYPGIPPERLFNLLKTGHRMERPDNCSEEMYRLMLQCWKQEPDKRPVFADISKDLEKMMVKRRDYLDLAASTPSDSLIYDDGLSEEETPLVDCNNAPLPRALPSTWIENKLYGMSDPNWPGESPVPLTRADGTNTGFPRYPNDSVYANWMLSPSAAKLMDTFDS
Mitogen-activated protein kinase kinase kinase 19 (Homo sapiens), sequence (Q56UN5 whole entry): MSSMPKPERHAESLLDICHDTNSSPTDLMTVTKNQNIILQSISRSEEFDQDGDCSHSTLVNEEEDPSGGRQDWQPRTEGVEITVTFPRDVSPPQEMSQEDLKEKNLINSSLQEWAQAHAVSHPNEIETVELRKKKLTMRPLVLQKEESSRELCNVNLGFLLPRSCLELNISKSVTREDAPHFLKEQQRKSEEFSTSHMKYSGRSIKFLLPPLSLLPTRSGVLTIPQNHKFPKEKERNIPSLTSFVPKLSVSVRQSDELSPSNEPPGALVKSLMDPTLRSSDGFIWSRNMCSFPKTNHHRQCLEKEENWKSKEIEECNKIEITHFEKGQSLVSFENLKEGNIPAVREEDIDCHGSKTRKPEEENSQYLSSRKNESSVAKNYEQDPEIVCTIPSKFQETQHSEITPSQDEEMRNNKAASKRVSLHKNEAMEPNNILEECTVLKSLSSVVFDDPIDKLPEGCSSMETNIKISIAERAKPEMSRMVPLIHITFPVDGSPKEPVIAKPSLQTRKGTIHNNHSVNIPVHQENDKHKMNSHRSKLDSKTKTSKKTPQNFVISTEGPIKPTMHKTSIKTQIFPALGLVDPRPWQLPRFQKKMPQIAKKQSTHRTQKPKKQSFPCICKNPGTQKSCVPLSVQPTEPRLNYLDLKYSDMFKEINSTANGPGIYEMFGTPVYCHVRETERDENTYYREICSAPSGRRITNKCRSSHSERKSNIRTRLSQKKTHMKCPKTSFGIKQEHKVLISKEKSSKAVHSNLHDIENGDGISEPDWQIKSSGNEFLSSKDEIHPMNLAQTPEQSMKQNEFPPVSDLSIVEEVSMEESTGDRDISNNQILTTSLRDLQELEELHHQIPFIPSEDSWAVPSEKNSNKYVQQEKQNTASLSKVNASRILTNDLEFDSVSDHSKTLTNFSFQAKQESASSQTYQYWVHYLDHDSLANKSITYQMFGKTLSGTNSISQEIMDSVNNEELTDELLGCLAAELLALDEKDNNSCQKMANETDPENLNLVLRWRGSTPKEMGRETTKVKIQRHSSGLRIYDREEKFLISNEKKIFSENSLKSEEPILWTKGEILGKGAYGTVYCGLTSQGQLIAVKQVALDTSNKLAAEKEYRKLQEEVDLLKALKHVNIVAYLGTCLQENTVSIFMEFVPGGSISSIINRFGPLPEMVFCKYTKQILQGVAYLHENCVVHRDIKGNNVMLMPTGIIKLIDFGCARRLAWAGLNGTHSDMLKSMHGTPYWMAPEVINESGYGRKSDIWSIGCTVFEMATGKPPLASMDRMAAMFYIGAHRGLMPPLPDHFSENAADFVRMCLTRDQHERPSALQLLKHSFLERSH
Alpha-1A adrenergic receptor (Homo sapiens), sequence (P35348 whole entry, the tested form may be a part): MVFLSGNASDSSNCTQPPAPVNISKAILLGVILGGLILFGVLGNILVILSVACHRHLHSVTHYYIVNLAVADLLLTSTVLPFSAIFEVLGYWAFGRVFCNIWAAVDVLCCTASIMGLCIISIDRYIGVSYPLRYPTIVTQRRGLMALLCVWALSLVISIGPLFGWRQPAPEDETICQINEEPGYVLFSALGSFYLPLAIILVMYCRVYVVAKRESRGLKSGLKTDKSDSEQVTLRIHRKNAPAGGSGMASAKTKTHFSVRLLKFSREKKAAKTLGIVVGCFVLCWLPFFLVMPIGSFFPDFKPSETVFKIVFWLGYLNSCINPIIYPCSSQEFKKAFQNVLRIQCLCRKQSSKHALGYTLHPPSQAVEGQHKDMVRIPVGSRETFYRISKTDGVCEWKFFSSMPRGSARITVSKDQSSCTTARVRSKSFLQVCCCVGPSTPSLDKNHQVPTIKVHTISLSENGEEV
MAP kinase-activated protein kinase 2 (Homo sapiens), sequence (P49137 whole entry, looked up): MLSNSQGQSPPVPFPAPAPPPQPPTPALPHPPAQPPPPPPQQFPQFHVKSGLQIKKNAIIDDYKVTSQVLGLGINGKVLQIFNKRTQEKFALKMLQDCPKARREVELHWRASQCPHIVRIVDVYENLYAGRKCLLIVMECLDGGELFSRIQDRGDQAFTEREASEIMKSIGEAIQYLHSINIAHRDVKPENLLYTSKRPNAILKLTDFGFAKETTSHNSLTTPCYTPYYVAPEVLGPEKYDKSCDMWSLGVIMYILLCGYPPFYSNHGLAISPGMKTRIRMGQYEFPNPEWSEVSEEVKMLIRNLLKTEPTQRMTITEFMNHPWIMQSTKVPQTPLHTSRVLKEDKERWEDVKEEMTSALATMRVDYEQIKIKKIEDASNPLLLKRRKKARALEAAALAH

As to `CC1=C(C#N)C(c2ccc3[nH]nc(C)c3c2)C(C#N)=C(C)N1` [BAY-474], the inhibition was -3% in assay [1]; 46% in assay [2] (Compound concentration 1.0 uM); 6% in assay [3]; -7% in assay [4]; 3% in [5]; 3% in assay [6]. The inhibition in [7] was -7%; in [8] it was -8%; in [9], 1%; in [10], 19%; in assay [11], 0%; in assay [12], -6%. Besides, the inhibition in the assay listed under Mus musculus is 0%; in assay [13], -2%; in [14], 16%; in assay [15] it was 10%. The half-maximal inhibitory concentration (IC50) in [2] came out at 900 nM.

As for `CC1=C(C#N)[C@@H](c2ccc3[nH]nc(C)c3c2)C(C#N)=C(c2ccc(Cl)cc2)N1` [BAY-827], the residual activity was 100% in assay [16]; 100% in assay [17]; 100% in [18]; 90.7% in assay [19]; 100% in [20]; 100% in assay [21]. The residual activity in assay [22] is 73.8%; in assay [23], 100%; in assay [24] it was 100%; in [25] it was 100%; in [26], 71.5%; in assay [27] it was 86.6%. Further, the residual activity in assay [28] is 76.4%; in [29], 100%; in assay [30], 100%; in assay [31], 100%; in assay [32] it was 90%; in [33], 100%. Moreover, the residual activity was 100% in assay [34]; 85.2% in assay [35]; 78.8% in assay [36]; 92.7% in assay [37]; 100% in assay [38]; 94.6% in assay [39]. Moreover, the residual activity is 100% in assay [40], 89.5% in [41], 100% in assay [42] and 100% in assay [43].
